Data set [1] can be described thus: Plasma clearance adapted in PK-Sim simulation to experimental literature concentration-time profiles. Format: in vivo, humans. To be noted: human, read-out: plasma clearance CL. As for the experimental part: Drug Dispos. 20, 417-419 (1999)) and a muscle concentration-time profile from the literature (M. Müller, B. v. Osten, R. Schmid, E. Piegler, I. Gerngross, H. Buchegger, H. G. Eichler: “Theophylline kinetics in peripheral tissues in vivo in humans”, Naunyn-Schmiedeberg's Arch. Pharmacol. 352, 438-441 (1995)) (FIG. 2).
The plasma clearance here is CL=0.40 ml/min/kg. (source: [12]) • b) Intravenous infusion of 240 mg over 10 minutes. […] (source: [13]) • c) Peroral administration of 200 mg of an immediately releasing formulation (mean and standard deviation of three bioequivalent immediate release capsules).

The nature of data set [2]: Lipophilicity (LogMA), substance input parameter for PK-Sim. It is filed as physicochemical.
For data set [3] the following is noted: cited from earlier work.
For data set [4] the following is noted: average value for an adult human; cited from earlier work.
The nature of data set [5]: Solubility, substance input parameter. Particulars: input parameter for PK-Sim. It is filed as physicochemical.

The structures appear in SMILES notation. In brackets after ≈: the same amount, converted by molar mass. Like-named read-outs stand apart in the source and are kept apart here.

Consider `Cn1c(=O)c2[nH]cnc2n(C)c1=O` [Theophylline], for which the clearance in data set [1] (intravenous infusion of 5.58 mg/kg over 20 minutes, adapted to experimental data (FIG. 2a)) was 0.4 mL/min/kg; in data set [1] (intravenous infusion of 240 mg over 10 minutes, adapted to experimental data (FIG. 2b)), 0.25 mL/min/kg; in data set [1] (oral, peroral administration of 200 mg immediately releasing formulation, adapted to experimental data (FIG. 2c)), 0.5 mL/min/kg. In addition, the “Lipophilicity (LogMA)” value in data set [2] is listed as −0.2. For the same molecule, the “plasma concentration below which a sufficient anti-asthmatic effect is not generally achieved” value in data set [3] is reported as “below 5 mg/l”. Further, the Free plasma fraction in data set [4] is 59%. Moreover, in data set [5], the concentration in solution (solubility) came to 2800 µg/mL (≈ 15.5 mM).

The term solubility denotes how much of the substance goes into solution per volume.

(Values after patent publication US9095653B2, “Method for the timed dosage of medicaments” (BAYER INTELLECTUAL PROPERTY GMBH, priority 2004, dated 2015).)
